Experiment [1] deals with T1, mouse HCN1 (mHCN1) (Mus musculus, UniProt O88704).
T1 construct: full-length wild-type cDNA in pGH19, cRNA expressed in Xenopus laevis oocytes; homotetrameric channel
As to the kind of experiment: two-electrode voltage clamp, Xenopus oocytes, Hill fit of current. It is filed as cell-based.

The target of experiment [2] is T1, mouse HCN1 (mHCN1). Described as above. Type of experiment: cell-based. The settings on record: read-out: relative IC50.

T1 sequence (O88704 whole entry): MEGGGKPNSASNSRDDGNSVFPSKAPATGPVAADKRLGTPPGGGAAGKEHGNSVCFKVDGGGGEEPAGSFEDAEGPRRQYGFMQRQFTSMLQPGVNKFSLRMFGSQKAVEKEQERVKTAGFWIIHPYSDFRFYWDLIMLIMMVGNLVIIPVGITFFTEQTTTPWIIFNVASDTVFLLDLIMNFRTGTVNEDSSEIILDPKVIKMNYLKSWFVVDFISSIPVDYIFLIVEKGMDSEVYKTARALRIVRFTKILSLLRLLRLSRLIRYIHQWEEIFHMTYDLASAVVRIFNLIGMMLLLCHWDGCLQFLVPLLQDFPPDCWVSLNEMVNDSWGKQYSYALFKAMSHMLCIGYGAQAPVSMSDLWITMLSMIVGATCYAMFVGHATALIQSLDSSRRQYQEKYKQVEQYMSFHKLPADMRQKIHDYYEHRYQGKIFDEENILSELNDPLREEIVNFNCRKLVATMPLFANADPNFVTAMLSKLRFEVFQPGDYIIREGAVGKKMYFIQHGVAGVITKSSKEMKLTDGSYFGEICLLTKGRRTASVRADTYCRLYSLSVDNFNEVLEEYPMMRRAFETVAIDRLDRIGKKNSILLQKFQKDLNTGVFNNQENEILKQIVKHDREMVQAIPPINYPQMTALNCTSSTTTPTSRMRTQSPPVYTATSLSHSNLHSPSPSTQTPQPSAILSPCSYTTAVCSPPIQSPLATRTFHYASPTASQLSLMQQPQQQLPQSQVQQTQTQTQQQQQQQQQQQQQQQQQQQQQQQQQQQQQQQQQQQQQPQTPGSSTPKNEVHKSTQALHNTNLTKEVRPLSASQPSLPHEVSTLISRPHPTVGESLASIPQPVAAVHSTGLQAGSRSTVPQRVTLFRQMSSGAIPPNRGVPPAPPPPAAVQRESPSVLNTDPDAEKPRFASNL

Compound `C=C(C)[C@@H]1CCC(C)=C[C@H]1c1c(O)cc(CCCCC)cc1O` [cannabidiol] had an EC50 at mouse HCN1 (mHCN1) [1] of 28.5 µM. That is a double-digit micromolar value.
Regarding `CCCCCc1cc(O)c2c(c1)OC(C)(C)[C@@H]1CCC(C)=C[C@@H]21` [Δ9-tetrahydrocannabinol], the IC50 at mouse HCN1 (mHCN1) [2] was determined as 21.8 µM.

The values are drawn from article PMC9019169, “Direct Regulation of Hyperpolarization-Activated Cyclic-Nucleotide Gated (HCN1) Channels by Cannabinoids” (Frontiers in Molecular Neuroscience, 2022).
